Test results: ChEMBL document CHEMBL1201862, “PubChem BioAssay data set” (2004)
Blank lines part the entries; values can stand above or below the molecule they belong to. Activity calls are given as the source filed them.

Tests used:
fMet-Leu-Phe receptor = molecular target: T1, fMet-Leu-Phe receptor (Homo sapiens, UniProt P21462); assay: FPR ligands, dose response (AID 519); format: functional
T1 sequence (P21462 whole entry): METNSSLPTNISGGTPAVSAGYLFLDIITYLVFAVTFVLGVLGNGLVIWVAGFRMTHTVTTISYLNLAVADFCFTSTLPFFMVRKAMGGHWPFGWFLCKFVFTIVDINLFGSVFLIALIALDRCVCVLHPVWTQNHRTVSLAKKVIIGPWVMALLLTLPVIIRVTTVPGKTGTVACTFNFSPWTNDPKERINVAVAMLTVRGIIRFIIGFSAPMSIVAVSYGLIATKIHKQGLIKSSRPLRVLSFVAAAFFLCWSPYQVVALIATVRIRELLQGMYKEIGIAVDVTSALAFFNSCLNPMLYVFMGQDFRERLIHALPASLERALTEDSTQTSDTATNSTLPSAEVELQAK

[1] = StAR promoter reporter inhibition counter-screen, dose response, counter-screen for LRH-1 inverse agonist project, cell-based, luminescence, luciferase reporter (AID 651969); format: functional
[2] = molecular target: Nuclear receptor subfamily 5 group A member 2 (Homo sapiens, UniProt O00482); format: functional, cell-based;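 also: HEK293T cells transfected with LRH-1 and a StAR promoter luciferase reporter; potency for inhibitors that lower LRH-1 driven reporter light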
Nuclear receptor subfamily 5 group A member 2, sequence (O00482 whole entry): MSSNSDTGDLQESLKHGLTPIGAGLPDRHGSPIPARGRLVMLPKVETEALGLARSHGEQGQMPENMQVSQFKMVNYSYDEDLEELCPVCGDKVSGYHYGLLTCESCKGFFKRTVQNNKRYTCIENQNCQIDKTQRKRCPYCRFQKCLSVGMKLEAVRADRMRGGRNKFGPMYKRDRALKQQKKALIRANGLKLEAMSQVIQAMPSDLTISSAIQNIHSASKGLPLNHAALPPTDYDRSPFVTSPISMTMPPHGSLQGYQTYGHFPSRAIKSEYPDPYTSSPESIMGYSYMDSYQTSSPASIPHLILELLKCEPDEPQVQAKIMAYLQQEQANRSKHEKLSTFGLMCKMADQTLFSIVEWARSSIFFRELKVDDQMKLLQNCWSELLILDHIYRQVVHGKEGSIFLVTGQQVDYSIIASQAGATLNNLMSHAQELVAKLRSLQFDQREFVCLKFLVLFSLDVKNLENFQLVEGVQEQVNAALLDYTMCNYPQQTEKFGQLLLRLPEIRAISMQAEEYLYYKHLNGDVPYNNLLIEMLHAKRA

Steroidogenic factor 1 = Steroidogenic factor 1 (Homo sapiens, UniProt Q13285); assay: Counterscreen for inverse agonists of the liver receptor homolog-1 (LRH-1; NR5A2): Luminescence-based cell-based high throughput dose response assay to identify inverse agonists of the Steroidogenic Factor 1 Nuclear Receptor (SF1; NR5A1).; format: functional
Steroidogenic factor 1, sequence (Q13285 whole entry): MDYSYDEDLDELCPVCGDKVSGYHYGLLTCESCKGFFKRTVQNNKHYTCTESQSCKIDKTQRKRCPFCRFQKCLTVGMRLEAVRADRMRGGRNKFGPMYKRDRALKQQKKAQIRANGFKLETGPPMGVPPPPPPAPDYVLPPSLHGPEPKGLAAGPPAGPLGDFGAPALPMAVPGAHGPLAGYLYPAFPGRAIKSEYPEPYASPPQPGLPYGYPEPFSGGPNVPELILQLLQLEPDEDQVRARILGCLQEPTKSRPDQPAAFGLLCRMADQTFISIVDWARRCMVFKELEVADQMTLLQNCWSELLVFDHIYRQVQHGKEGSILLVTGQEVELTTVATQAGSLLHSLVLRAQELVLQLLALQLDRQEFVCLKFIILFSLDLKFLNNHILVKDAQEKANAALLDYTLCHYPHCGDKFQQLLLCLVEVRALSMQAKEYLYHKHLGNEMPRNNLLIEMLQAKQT

[3] = ADAM10 inhibitors, peptide cleavage, dose response, biochemical, QFRET (AID 743254);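 also: ADAM10 enzyme with the DM2 quenched FRET peptide as substrate; EDANS fluorescence gain as the protease cuts the substrate; inhibitor potency against ADAM10 proteolytic activity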
[4] = molecular target: Disintegrin and metalloproteinase domain-containing protein 17 (Homo sapiens, UniProt P78536); assay: ADAM17 protease inhibitors, dose response, counter-screen for ADAM10 exosite inhibitor project, biochemical, quenched FRET substrate (AID 743253)
Disintegrin and metalloproteinase domain-containing protein 17, sequence (P78536 whole entry, the tested form may be a part): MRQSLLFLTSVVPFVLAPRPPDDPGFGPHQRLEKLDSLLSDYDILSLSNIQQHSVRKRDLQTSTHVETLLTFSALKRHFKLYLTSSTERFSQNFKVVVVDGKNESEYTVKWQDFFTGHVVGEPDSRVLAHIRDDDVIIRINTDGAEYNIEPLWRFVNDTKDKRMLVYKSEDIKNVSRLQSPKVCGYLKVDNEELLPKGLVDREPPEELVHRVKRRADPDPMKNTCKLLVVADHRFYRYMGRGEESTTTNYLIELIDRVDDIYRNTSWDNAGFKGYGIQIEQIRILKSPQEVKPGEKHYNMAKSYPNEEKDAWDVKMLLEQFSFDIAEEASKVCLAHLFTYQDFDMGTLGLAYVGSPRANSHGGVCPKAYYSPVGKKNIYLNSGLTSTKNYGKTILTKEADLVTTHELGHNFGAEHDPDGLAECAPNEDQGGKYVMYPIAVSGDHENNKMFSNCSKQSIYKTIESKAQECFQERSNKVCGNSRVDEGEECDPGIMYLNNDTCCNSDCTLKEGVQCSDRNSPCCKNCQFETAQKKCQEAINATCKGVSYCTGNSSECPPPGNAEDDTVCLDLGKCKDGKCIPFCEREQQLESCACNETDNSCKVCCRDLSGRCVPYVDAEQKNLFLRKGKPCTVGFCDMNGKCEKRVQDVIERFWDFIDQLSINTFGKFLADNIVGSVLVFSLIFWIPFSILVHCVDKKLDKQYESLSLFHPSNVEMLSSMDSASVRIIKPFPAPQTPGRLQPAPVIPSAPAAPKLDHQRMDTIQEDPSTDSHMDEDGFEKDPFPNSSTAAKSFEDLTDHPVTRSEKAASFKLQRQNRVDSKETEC

[5] = NIH:OVCAR-3 ovarian cancer cell cytotoxicity, dose response, PAX8 inhibitor project, plate reader, dry powder samples (AID 743044); format: functional, cell-based
Paired box protein Pax-8 = Paired box protein Pax-8 (Homo sapiens, UniProt Q06710); assay: inhibitors of PAX8-driven TPO luciferase reporter, dose response, RMG-I cells, cherry-pick (AID 687027); format: functional, cell-based;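 also: luciferase reporter driven by Pax8 target thyroperoxidase promoter measured by SteadyGlo luminescence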
Paired box protein Pax-8, sequence (Q06710 whole entry): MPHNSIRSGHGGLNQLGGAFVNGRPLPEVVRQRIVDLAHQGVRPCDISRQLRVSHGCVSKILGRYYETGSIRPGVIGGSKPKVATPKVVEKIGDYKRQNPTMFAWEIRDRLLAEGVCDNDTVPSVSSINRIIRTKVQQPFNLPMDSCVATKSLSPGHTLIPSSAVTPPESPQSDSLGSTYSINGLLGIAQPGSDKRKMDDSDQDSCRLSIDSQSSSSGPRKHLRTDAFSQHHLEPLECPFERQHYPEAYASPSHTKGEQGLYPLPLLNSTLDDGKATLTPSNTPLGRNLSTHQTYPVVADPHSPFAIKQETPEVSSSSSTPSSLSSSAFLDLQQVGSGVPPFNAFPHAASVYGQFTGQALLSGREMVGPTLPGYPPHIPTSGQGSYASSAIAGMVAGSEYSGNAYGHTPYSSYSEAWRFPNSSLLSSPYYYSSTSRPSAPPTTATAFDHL

[6] = IGROV1 ovarian cancer cell cytotoxicity, dose response, PAX8 inhibitor project, plate reader, dry powder samples (AID 743043); format: functional, cell-based; conditions: IGROV-1
[7] = molecular target: T2, Rac GTPase-activating protein 1 (Homo sapiens, UniProt Q9H0H5); assay: MgcRacGAP GTPase-activating activity inhibitors, confirmation, biochemical, ADP Hunter fluorescence, primary and confirmatory (AID 624330); format: functional
T2 sequence (Q9H0H5 whole entry): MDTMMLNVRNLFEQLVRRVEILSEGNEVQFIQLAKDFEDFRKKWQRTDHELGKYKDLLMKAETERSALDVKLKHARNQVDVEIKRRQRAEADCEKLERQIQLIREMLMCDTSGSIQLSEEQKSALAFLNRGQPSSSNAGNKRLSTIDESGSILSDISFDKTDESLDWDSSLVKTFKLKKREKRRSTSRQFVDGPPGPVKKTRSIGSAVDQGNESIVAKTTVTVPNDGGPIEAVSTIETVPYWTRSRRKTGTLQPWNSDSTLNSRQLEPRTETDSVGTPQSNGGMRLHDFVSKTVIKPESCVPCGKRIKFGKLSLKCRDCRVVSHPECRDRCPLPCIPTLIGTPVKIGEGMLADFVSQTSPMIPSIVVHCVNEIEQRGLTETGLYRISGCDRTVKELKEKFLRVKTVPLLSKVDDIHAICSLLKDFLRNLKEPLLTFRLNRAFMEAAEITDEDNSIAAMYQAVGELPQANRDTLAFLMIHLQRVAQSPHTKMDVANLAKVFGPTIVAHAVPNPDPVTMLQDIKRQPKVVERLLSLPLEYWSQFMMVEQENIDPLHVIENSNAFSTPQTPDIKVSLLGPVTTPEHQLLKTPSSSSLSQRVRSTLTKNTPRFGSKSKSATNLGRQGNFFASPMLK

[8] = molecular target: T3, DNA repair protein RAD52 homolog (Homo sapiens, UniProt P43351); format: functional, biochemical
T3 sequence (P43351 whole entry): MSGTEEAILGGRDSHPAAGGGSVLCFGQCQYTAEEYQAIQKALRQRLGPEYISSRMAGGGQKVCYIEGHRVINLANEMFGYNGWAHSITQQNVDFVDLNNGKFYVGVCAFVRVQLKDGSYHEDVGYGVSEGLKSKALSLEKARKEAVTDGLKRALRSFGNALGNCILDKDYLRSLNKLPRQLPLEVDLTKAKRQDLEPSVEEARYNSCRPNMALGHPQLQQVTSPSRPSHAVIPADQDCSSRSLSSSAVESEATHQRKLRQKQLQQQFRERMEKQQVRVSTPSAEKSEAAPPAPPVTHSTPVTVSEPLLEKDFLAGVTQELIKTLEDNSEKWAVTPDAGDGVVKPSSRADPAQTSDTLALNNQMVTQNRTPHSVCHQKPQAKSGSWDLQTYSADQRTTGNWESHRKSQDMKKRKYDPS

[9] = CRF-BP/CRF-R2 complex antagonists, dose response, cell-based, uHTS hits, 384-well (AID 651639); format: functional, Homo sapiens; conditions: read-out: IC50_Mean
[10] = molecular target: T4, Corticotropin-releasing factor receptor 2/Corticotropin-releasing factor-binding protein (Homo sapiens, UniProt P24387+Q13324); assay: activators of CRF receptor 2 with binding protein – uHTS hits, confirmation (AID 602473); format: functional; conditions: read-out: EC50_Mean
T4 sequence (Q13324 whole entry): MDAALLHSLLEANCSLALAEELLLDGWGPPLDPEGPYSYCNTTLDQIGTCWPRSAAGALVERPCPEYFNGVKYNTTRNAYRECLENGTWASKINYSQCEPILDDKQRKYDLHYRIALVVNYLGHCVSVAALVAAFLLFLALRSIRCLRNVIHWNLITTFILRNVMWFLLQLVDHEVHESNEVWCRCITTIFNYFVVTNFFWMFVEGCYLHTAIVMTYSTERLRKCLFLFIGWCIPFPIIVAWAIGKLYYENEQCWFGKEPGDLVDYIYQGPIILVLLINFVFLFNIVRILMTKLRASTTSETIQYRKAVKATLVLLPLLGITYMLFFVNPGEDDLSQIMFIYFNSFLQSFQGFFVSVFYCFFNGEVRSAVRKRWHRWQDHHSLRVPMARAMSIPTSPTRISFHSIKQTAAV
T4 sequence (P24387 whole entry): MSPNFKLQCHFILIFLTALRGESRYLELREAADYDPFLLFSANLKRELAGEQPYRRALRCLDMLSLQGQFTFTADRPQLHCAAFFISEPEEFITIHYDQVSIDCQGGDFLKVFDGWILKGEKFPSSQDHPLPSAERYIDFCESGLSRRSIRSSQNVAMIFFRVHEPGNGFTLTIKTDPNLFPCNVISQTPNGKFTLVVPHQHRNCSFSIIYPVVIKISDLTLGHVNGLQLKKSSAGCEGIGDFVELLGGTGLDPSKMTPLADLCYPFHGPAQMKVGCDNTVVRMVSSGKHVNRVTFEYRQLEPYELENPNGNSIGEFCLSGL

[11] = molecular target: T4, Corticotropin-releasing factor receptor 2/Corticotropin-releasing factor-binding protein; assay: Dose Response confirmation of uHTS hits for small molecule antagonists of the CRF-binding protein and CRF-R2 receptor complex.; format: functional; conditions: read-out: IC50_Mean
[12] = molecular target: T5, Tyrosine-protein phosphatase non-receptor type 7 (Homo sapiens, UniProt P35236); assay: inhibitors of human HePTP phosphatase, […], biochemical, absorbance, leukemia target (AID 521); format: functional
T5 sequence (P35236 whole entry): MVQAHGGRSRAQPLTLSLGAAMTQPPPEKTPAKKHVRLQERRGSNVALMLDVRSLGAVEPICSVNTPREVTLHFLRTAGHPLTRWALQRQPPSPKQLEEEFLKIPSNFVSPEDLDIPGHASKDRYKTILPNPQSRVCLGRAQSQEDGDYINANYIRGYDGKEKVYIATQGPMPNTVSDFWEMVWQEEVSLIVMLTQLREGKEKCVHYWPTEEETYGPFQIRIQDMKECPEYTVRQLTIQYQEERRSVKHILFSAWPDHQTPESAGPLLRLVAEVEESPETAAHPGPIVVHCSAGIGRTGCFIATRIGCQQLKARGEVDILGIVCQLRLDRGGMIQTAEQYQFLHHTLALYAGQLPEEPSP

[13] = non-specific cell cytotoxicity, dose response, cytotoxicity control for PAX8 inhibitor project, plate reader, dry powder samples (AID 743021); format: functional, cell-based
[14] = HEK293 cell cytotoxicity, dose response, cytotoxicity control, plate reader, cherry-picked samples (AID 743446); format: functional, cell-based
[15] = A549 cell cytotoxicity, dose response, cytotoxicity control, plate reader, cherry-pick, antagonist series (AID 743412); format: functional, cell-based
[16] = HepG2 cell cytotoxicity, dose response, cytotoxicity control, plate reader, cherry-pick, antagonist series (AID 743416); format: functional, cell-based
[17] = MC4R antagonists, dose response, counter-screen for LGR2 antagonist project, cell-based, plate reader, cherry pick (AID 743444); format: functional;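 also: transfected HEK 293 cells stimulated with alpha-MSH peptide; potency of inhibitors of the alpha-MSH evoked signal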
[18] = LGR2 antagonists, dose response, cell-based, HEK293, CRE-luciferase reporter, cherry pick, set 2 (AID 743343); format: functional;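 also: transfected cells were stimulated with diluted bursicon conditioned medium after compound addition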

Structure (SMILES): CCOc1ccc(NC(=O)CSc2nncc(O)n2)cc1
IC50 [1]: 35.9 µM (inactive)
IC50 [2]: 0.594 µM (active)
IC50 (Steroidogenic factor 1): 0.178 µM (active)

Structure (SMILES): C[C@@H]1CCCCO[C@@H](CN(C)Cc2ccc(Cl)c(Cl)c2)[C@@H](C)CN([C@@H](C)CO)C(=O)c2cc(NC(=O)Nc3ccccc3)ccc2O1
AC50 [5]: 30.2 µM (active)
AC50 (Paired box protein Pax-8): 4.6 µM (active)
AC50 [6]: 49.2 µM (active)

Structure (SMILES): c1ccc(-c2nn[nH]c2-c2ccccc2)cc1
IC50 [12]: > 100 µM (not active)

Structure (SMILES): N#C[C@H]1[C@H](c2ccc(C#Cc3ccccc3F)cc2)[C@H](CO)N1C(=O)C1CCC1
AC50 [5]: 23.8 µM (active)
AC50 [13]: 21.9 µM (active)
AC50 [14]: 17.9 µM (active)
AC50 [15]: 29.7 µM (active)
AC50 (Paired box protein Pax-8): 11.1 µM (active)
AC50 [16]: 32.2 µM (active)
AC50 [17]: 14.7 µM (active)
AC50 [18]: 11.4 µM (active)

The remaining lines, values ahead:

Ki (fMet-Leu-Phe receptor): > 66.7 µM (inactive)
Structure (SMILES): CCCNC(=O)CS(=O)(=O)Cc1nc(-c2cccc(OC)c2)oc1C

IC50 [3]: 5.38 µM (active)
IC50 [4]: > 69.5 µM (inactive)
Structure (SMILES): C=CCC[C@@H](Cc1ccc(F)cc1)C(=O)OC[C@H](Cc1c[nH]c2ccccc12)NC(=O)[C@H](CC=C)CC(=O)N(CCO)Cc1ccccc1

IC50 [3]: 13.9 µM (inactive)
IC50 [4]: > 69.5 µM (inactive)
Structure (SMILES): Cc1cc(F)ccc1C(O)c1nc(-c2cccc(OCc3ccccc3)c2)c[nH]1 (stereo not given)

IC50 [7]: 164 µM (active)
AC50 [8]: 3.22 µM (active)
Structure (SMILES): CCCCN(CC)CCNC(=O)CCC(=O)Nc1ccc2nc(N3CCN(C)CC3)cc(C)c2c1

IC50 [9]: 6.28 µM (active)
EC50 [10]: > 53 µM (inactive)
IC50 [11]: < 0.368 µM (active)
Structure (SMILES): Cc1[nH]c2nc(SCC(=O)c3cccc([N+](=O)[O-])c3)nc-2cc1Br
